The source of these data is patent US20020072602A1, “Micronized mirtazapine” (priority 2000, published 2002).

Series [1] is described as follows: dissolution of mirtazapine before and after micronization. Particulars: compared to mirtazapine prior to micronization. In kind it is physicochemical. An excerpt: FIG. 1 is a graph of the dissolution data of mirtazapine before and after micronization. FIG. 2 is a graph of the percent of dissolved mirtazapine before and after micronization. FIG. 3 is a graph of showing the dissolution time and standard deviations of the dissolution results before and after micronization. […] This is valuable improvement provides for more accurate dosing of mirtazapine.

For series [2] the following is noted: cited from earlier work.

Each structure is given as a SMILES string. Entries after “also recorded” stand apart in the source; their conditions may differ.

With `CN1CCN2c3ncccc3Cc3ccccc3C2C1` (centres unmarked) [micronized mirtazapine], in series [1], the dissolution profile entry is “superior dissolution profile; also recorded: more stable and reproducible dissolution profile”.
Turning to `CN1CCN2c3ncccc3Cc3ccccc3C2C1` (centres unmarked) [Mirtazapine, 1,2,3,4,10,14b-hexahydro-2-methyl-pyrazino [2,1-a]pyrido[2,3-c][2] benzazepine], the solubility in water result in series [2] is “essentially insoluble in water”.
